Measurements taken from patent publication US12410160B2 (Gilead Sciences, Inc., priority 2021, dated 2025).
pEC50, pIC50: −log10 of the molar value. Where two headings read alike, the source gives them in different places.

Legend:
human OATP1B1 = human OATP1B1 (Homo sapiens (Human), UniProt Q9Y6L6); assay: In Vitro Inhibition Assessment with Human OATP1B1 Transporter; type: in vitro ADME; details: HEK293-OATP1B1 cells, probe substrate pravastatin
Procedure: In Vitro Inhibition Assessment with Human OATP1B1 and OATP1B3 Transporters Assay Protocol
The purpose of this assay was to assess the inhibition potential of test article (TA) toward human OATP1B1 and OATP1B3 transporters in vitro using cell lines transfected with the individual transporters. The assays used clinically relevant probe substrate pravastatin and a known positive control inhibitor rifampicin. HEK293 mock, HEK293-OATP1B1, and HEK293-OATP1B3 transfected cells were seeded onto CellCoat Poly-D-Lysine coated 96 well black cell culture plates with clear bottoms (Greiner bio-one, Cat. #655946) at a density of 70,000 cells/well and cultured to confluency overnight. Seeding media used was Dulbecco's Modification of Eagle's Medium (DMEM—with GlutaMAX high glucose; Gibco, Cat #: 10569-010) supplemented with 10% fetal bovine serum, 0.1 mM non-essential amino acids, 100 U/mL penicillin, and 100 μg/mL streptomycin. On assay day, media were removed from the assay plates and cells were washed with Hanks' Balanced Salt Solution (HBSS Buffer) (Corning, Cat. #21-023-CV). All TAs and reference inhibitor were serially diluted in DMSO to create spiking solutions at concentrations of 250-fold of final assay concentrations (final DMSO content 0.4%). Cells were preincubated with HBSS buffer containing test compounds for 15 minutes. After the removal of HBSS buffer, dose solution containing TA or reference inhibitor and probe substrate were added to the HEK293-OATP1B1, HEK-293-OATP1B3 and its associated mock cell plate, respectively. The co-incubation period of TAs with the corresponding probe substrate for all plates was 5 minutes. An aliquot of the dose solution was removed from the HEK293 mock cell plates and analysed for dose recovery. Cells were then washed three times with ice cold HBSS buffer and then immediately extracted with methanol:water (70:30 v:v) containing internal standard labetolol (30 nM). The supernatants were evaporated to dryness on injection plates and reconstituted in 80% water containing 20% acetonitrile and 0.1% formic acid for analysis by liquid chromatography with tandem mass spectrometry (LC-MS-MS).
Fractional transport activities were calculated from the equation: Activity %=(A−B)/(C−D)×100
• A: translocated amount of substrate in the presence of TA on transfected cells • B: translocated amount of substrate in the presence of TA on Mock cells • C: translocated amount of substrate in the presence of solvent on transfected cells • D: translocated amount of substrate in the presence of solvent on Mock cells
GraphPad Prism 7.0 (GraphPad Software Inc., San Diego, CA) was used for curve fitting and determination of reaction parameters. In uptake transporter inhibition assays, the IC50 (μM) was calculated, where applicable. IC50 was defined as the concentration of TA required to inhibit maximal activity by 50%.

HepG2 cells = assay: F1P Cell-Based Assay (EC50), 13C6-fructose-1-phosphate in HepG2 cells (cell culture medium or 50% human plasma)
[1] = molecular target: KHK-C expressed in NRK-52E cells (Homo sapiens (Human), UniProt P50053); assay: KHK-C Cell-based Assay (EC50), NRK CTG, fructose-mediated ATP-depletion
KHK-C expressed in NRK-52E cells, sequence (P50053 whole entry): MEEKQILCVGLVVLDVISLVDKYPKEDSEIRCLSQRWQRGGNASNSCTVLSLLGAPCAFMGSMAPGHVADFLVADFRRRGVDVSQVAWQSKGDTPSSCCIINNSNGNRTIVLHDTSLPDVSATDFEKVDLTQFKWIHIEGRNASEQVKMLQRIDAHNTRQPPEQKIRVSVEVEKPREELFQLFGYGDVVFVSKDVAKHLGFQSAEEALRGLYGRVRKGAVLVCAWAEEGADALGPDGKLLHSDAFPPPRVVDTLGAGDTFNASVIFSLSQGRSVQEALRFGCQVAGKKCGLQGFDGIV

human KHK-C = human KHK-C (Homo sapiens (Human), UniProt P50053); assay: KHK Biochemical Assay (IC50), ADP-Glo, KHK-C; details: average of at least two separate assays
human KHK-C, sequence (P50053 whole entry): as above
How it was run: (§1)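 His-tagged enzyme expressed in BL21 (DE3), Ni-NTA purified. Compounds, serially diluted 1:3 in DMSO, pre-incubated 30 min with enzyme in 50 mM Hepes pH 7.4, 140 mM KCl, 5 mM MgCl2, 0.01% Triton-X, then ATP and fructose added; 4 h at room temperature. ADP formation read by ADP-Glo luminescence.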

human KHK-A = human KHK-A (Homo sapiens (Human), UniProt P50053); assay: KHK Biochemical Assay (IC50), ADP-Glo, KHK-A; details: average of at least two separate assays
human KHK-A, sequence (P50053 other isoform, or with tags, fused parts or gaps): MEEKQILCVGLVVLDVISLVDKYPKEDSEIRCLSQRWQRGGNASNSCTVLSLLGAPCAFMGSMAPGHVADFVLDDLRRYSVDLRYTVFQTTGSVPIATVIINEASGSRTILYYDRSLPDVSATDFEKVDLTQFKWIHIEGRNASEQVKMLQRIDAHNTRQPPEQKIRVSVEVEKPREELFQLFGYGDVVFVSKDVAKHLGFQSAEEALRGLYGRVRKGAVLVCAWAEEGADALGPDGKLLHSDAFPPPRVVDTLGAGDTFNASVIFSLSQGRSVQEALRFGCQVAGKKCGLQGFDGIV
How it was run: as §1

[2] = Homo sapiens, HepG2, HepG2 cells, 50% human plasma, read-out: F1P 50% HP EC50
[3] = Homo sapiens, HepG2, read-out: F1P 10% FBS EC50, HepG2 cells, cell culture medium (10% FBS)

human OATP1B1, sequence (Q9Y6L6 whole entry): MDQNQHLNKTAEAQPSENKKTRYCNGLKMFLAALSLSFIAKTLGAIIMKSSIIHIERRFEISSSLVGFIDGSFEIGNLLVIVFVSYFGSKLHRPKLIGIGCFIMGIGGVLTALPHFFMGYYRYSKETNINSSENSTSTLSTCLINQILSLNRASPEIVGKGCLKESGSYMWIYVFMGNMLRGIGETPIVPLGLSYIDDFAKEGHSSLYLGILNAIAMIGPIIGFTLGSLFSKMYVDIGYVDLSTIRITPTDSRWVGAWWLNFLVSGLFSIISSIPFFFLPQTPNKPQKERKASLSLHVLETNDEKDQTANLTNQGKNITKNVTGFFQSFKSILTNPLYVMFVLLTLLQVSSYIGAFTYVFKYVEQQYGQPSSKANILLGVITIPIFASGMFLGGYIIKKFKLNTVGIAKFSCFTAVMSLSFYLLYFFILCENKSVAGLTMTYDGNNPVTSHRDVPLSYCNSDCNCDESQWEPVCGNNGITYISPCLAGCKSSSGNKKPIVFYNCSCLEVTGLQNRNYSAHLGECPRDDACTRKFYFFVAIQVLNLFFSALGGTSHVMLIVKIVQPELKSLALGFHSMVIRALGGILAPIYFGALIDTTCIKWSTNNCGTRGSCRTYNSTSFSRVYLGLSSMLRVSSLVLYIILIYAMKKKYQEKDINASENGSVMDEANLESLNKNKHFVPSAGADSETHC

SMILES	pIC50 (human OATP1B1)	pEC50 (HepG2 cells; [2])	pEC50 (HepG2 cells; [3])	pEC50 [1]	pIC50 (human KHK-C)	pIC50 (human KHK-A; ADP-Glo)	pIC50 (human KHK-C; ADP-Glo)	pIC50 (human KHK-A)	pEC50 (HepG2 cells; HepG2 cells, 50% human plasma, read-out: F1P 50% HP EC50)	pEC50 (HepG2 cells; read-out: F1P 10% FBS EC50, HepG2 cells, cell culture medium (10% FBS))	pEC50 ([1]; read-out: NRK CTG EC50, NRK-52E cells, Cell-Titer Glo, 25 mM fructose)
C[C@H]1CCN1c1nc2c(c(-c3cccc([C@H]4C[C@@H]4C(=O)O)c3)n1)CCC2 (single isomer, unassigned) [Example 89]	6.80	6.51	7.45	7.43	–	8.22	8.48	–	–	–	–
C[C@H]1[C@H](O)CN1c1nc(-c2ccc3c(c2)CC[C@@]32COC(=O)N2)c2c(n1)C(F)(F)CC2 (single isomer, unassigned) [Example 476]	5.22	7.43	7.63	8.02	9.70	–	–	7.96	–	–	–
C[C@H]1[C@H](O)CN1c1nc(-c2ccc3c(c2)CCCNC3=O)c2c(n1)C(F)(F)CC2 [Example 178, 7-(7,7-difluoro-2-((2S,3R)-3-hydroxy-2-methylazetidin-1-yl)-6,7-dihydro-5H-cyclopenta[d]pyrimidin-4-yl)-2,3,4,5-tetrahydro-1H-benzo[c]azepin-1-one]	5.87	7.39	7.66	7.56	–	–	8.27	–	–	–	–
C[C@H]1CCN1c1nc2c(c(-c3ccc4c(=O)[nH]cnc4c3)n1)CCC2 [Example 383, 7-[2-[(2S)-2-methylazetidin-1-yl]-6,7-dihydro-5H-cyclopenta[d]pyrimidin-4-yl]-3H-quinazolin-4-one]	6.71	–	–	8.14	–	7.97	8.36	–	–	–	–
C[C@H]1CCN1c1nc2c(c(-c3ccc4c(=O)[nH]ncc4c3)n1)CCC2 [Example 427, 6-[2-[(2S)-2-methylazetidin-1-yl]-6,7-dihydro-5H-cyclopenta[d]pyrimidin-4-yl]-2H-phthalazin-1-one]	6.68	–	–	7.40	7.52	–	–	7.75	–	–	–
C[C@H]1[C@H](O)CN1c1nc(-c2cccc(CN(C)S(C)(=O)=O)c2)c2c(n1)C(F)(F)CC2 [Example 462, N-(3-(7,7-difluoro-2-((2S,3R)-3-hydroxy-2-methylazetidin-1-yl)-6,7-dihydro-5H-cyclopenta[d]pyrimidin-4-yl)benzyl)-N-methylmethanesulfonamide]	5.56	7.47	8.02	8.04	8.49	–	–	–	–	–	–
C[C@H]1CCN1c1nc2c(c(-c3ccc4nc(N)[nH]c(=O)c4c3)n1)CCC2 [Example 463, (S)-2-amino-6-(2-(2-methylazetidin-1-yl)-6,7-dihydro-5H-cyclopenta[d]pyrimidin-4-yl)quinazolin-4(3H)-one]	5.87	7.33	8.14	6.82	8.41	–	–	–	–	–	–
C[C@H]1[C@H](O)CN1c1nc(-c2cccc(S(C)(=N)=O)c2)c2c(n1)C(F)(F)CC2 (some centres unmarked) [Example 464]	< 4.40	7.26	7.34	7.26	7.80	–	–	–	–	–	–
C[C@H]1CCN1c1nc(-c2ccc3c(c2)CCNC3)c2c(n1)C(F)(F)CC2 [Example 642, 6-[7,7-difluoro-2-[(2S)-2-methylazetidin-1-yl]-5,6-dihydrocyclopenta[d]pyrimidin-4-yl]-1,2,3,4-tetrahydroisoquinoline]	4.65	8.62	8.96	8.39	9.05	–	–	–	–	–	–
C[C@H]1[C@H](O)CN1c1nc(-c2ccc3c(c2)O[C@H](CO)CNC3=O)c2c(n1)C(F)(F)CC2 [Example 705, (S)-8-(7,7-difluoro-2-((2S,3R)-3-hydroxy-2-methylazetidin-1-yl)-6,7-dihydro-5H-cyclopenta[d]pyrimidin-4-yl)-2-(hydroxymethyl)-3,4-dihydrobenzo[f][1,4]oxazepin-5(2H)-one]	5.05	7.26	7.28	6.20	8.49	–	–	–	–	–	–
C[C@H]1CCN1c1nc(-c2ccc(C3(N)CS(=O)(=O)C3)cc2)c2c(n1)C(F)(F)CC2 [Example 769, (S)-3-amino-3-(4-(7,7-difluoro-2-(2-methylazetidin-1-yl)-6,7-dihydro-5H-cyclopenta[d]pyrimidin-4-yl)phenyl)thietane 1,1-dioxide]	4.72	7.74	8.17	8.51	9.10	–	–	–	–	–	–

More lines, in order of rising pIC50 (human OATP1B1), values ahead:

pIC50 (human OATP1B1)	pEC50 (HepG2 cells; [2])	pEC50 (HepG2 cells; [3])	pEC50 [1]	pIC50 (human KHK-C)	pIC50 (human KHK-A; ADP-Glo)	pIC50 (human KHK-C; ADP-Glo)	pIC50 (human KHK-A)	pEC50 (HepG2 cells; HepG2 cells, 50% human plasma, read-out: F1P 50% HP EC50)	pEC50 (HepG2 cells; read-out: F1P 10% FBS EC50, HepG2 cells, cell culture medium (10% FBS))	pEC50 ([1]; read-out: NRK CTG EC50, NRK-52E cells, Cell-Titer Glo, 25 mM fructose)	SMILES
4.61	–	–	–	9.70	–	–	8.62	8.19	8.52	8.80	C[C@H]1[C@H](O)CN1c1nc(-c2ccc3c(c2)OC[C@@]32COCC(=O)N2)c2c(n1)C(F)(F)CC2 (single isomer, unassigned) [Example 499]
4.76	7.74	8.28	8.27	9.70	–	–	8.34	–	–	–	C[C@H]1[C@H](O)CN1c1nc(-c2ccc3c(c2)OC[C@@]32COC(=O)N2)c2c(n1)C(F)(F)CC2 (single isomer, unassigned) [Example 483]
5.34	7.47	7.81	7.83	8.85	–	–	–	–	–	–	C[C@H]1[C@H](O)CN1c1nc(-c2ccc3c(c2)OCC3NS(C)(=O)=O)c2c(n1)C(F)(F)CC2 (mixture of isomers) [Example 465]
5.43	7.18	7.55	7.05	–	–	7.84	–	–	–	–	COc1cc(-c2nc(N3C[C@@H](O)[C@@H]3C)nc3c2CCC3(F)F)ccc1C(N)=O [Example 177, 4-(7,7-difluoro-2-((2S,3R)-3-hydroxy-2-methylazetidin-1-yl)-6,7-dihydro-5H-cyclopenta[d]pyrimidin-4-yl)-2-methoxybenzamide]
6.01	–	–	6.32	8.20	–	–	7.57	–	–	–	C[C@H]1CCN1c1nc2c(c(-c3ccc4c(=O)[nH]cc(S(N)(=O)=O)c4c3)n1)CCC2 [Example 433, 6-[2-[(2S)-2-methylazetidin-1-yl]-6,7-dihydro-5H-cyclopenta[d]pyrimidin-4-yl]-1-oxo-2H-isoquinoline-4-sulfonamide]
6.05	7.10	7.52	7.34	–	–	7.95	–	–	–	–	CCOc1cc(-c2nc(N3C[C@@H](O)[C@@H]3C)nc3c2CCC3(F)F)ccc1C(N)=O [Example 170, 4-(7,7-difluoro-2-((2S,3R)-3-hydroxy-2-methylazetidin-1-yl)-6,7-dihydro-5H-cyclopenta[d]pyrimidin-4-yl)-2-ethoxybenzamide]
6.16	7.95	8.19	8.38	–	–	–	–	–	–	–	C[C@H]1[C@H](O)CN1c1nc2c(c(-c3ccc4c(N)nccc4c3)n1)CCC2 [Example 385, (2S,3R)-1-[4-(1-amino-6-isoquinolyl)-6,7-dihydro-5H-cyclopenta[d]pyrimidin-2-yl]-2-methyl-azetidin-3-ol]
7.00	7.07	7.96	8.52	–	–	8.82	–	–	–	–	C[C@H]1CCN1c1nc2c(c(-c3cc4cc[nH]c(=O)c4s3)n1)CCC2 [Example 392, 2-[2-[(2S)-2-methylazetidin-1-yl]-6,7-dihydro-5H-cyclopenta[d]pyrimidin-4-yl]-6H-thieno[2,3-c]pyridin-7-one]
